# “Also recorded” adds a separate entry of the source. Where a SMILES comes first, the peptide text is derived from it. [ ]: non-standard residue; d: D form. Nle = CCCC[C@H](N)C(=O)O
# T1: occludin, Q16625
# T1 chain: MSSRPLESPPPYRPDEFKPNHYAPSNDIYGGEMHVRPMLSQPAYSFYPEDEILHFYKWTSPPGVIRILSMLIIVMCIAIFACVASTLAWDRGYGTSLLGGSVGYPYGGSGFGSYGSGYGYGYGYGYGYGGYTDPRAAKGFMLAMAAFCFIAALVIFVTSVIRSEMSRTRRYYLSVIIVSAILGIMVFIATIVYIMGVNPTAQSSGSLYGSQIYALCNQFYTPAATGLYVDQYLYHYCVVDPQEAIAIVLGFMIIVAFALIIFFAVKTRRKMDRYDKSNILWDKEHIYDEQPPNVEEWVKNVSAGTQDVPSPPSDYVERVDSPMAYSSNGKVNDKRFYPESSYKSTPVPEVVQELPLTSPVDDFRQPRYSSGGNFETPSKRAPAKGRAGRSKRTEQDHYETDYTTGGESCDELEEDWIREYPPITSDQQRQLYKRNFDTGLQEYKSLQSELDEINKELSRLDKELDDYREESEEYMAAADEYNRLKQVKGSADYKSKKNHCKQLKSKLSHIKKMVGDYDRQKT
# T2: E-cadherin, P12830
# T2 chain: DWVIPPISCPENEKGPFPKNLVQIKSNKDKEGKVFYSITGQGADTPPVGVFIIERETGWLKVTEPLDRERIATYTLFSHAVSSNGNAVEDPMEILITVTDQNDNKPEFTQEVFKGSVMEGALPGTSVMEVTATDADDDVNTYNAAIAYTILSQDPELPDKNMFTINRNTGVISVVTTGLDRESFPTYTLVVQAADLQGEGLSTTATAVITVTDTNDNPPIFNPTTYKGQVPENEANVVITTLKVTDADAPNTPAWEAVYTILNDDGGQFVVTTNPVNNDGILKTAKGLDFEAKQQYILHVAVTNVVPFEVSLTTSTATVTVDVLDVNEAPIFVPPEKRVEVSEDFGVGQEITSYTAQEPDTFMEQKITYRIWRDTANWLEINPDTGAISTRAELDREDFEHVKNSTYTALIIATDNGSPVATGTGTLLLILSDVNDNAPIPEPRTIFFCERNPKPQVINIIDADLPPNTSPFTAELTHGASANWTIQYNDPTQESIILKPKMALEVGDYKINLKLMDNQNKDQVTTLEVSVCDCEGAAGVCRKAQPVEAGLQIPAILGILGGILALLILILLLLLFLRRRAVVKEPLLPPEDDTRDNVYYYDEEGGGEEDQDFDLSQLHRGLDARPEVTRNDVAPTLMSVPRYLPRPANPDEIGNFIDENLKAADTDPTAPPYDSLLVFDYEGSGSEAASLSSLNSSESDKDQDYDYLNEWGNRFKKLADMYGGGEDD
# B1: exogenous human calpain 1 (protein)
# chain: SEEIITPVYCTGVSAQVQKQRARELGLGRHENAIKYLGQDYEQLRVRCLQSGTLFRDEAFPPVPQSLGYKDLGPNSSKTYGIKWKRPTELLSNPQFIVDGATRTDICQGALGDCWLLAAIASLTLNDTLLHRVVPHGQSFQNGYAGIFHFQLWQFGEWVDVVVDDLLPIKDGKLVFVHSAEGNEFWSALLEKAYAKVNGSYEALSGGSTSEGFEDFTGGVTEWYELRKAPSDLYQIILKALERGSLLGCSIDISSVLDMEAITFKKLVKGHAYSVTGAKQVNYRGQVVSLIRMRNPWGEVEWTGAWSDSSSEWNNVDPYERDQLRVKMEDGEFWMSFRDFMREFTRLEICNLTPDALKSRTIRKWNTTLYEGTWRRGSTAGGCRNYPATFWVNPQFKIRLDETDDPDDYGDRESGCSFVLALMQKHRRRERRFGRDMETIGFAVYEVPPELVGQPAVHLKRDFFLANASRARSEQFINLREVSTRFRLPPGEYVVVPSTFEPNKEGDFVLRFFSEKSAGTVELDDQIQANLPDEQVLSEEEIDENFKALFRQLAGEDMEISVKELRTILNRIISKHKDLRTKGFSLESCRSMVNLMDRDGNGKLGLVEFNILWNRIRNYLSIFRKFDLDKSGSMSAYEMRMAIESAGFKLNKKLYELIITRYSEPDLAVDFDNFVCCLVRLETMFRFFKTLDTDLDGVVTFDLFKWLQLTMFA
# Key:
# [1] = test system: occludin cleavage by calpain (45 kDa occludin cleavage product); test: Occludin cleavage: immunoprecipitation and immunoblot in 1HAEo- cells; assay type: cell-based, human; conditions: for Generation of occludin cleavage product in presence of inhibitor: 6 μM BAPTA/AM, 20 μM ALLN, 20 μM GM6001, 25 μM Z-DEVD-FMK
# Experimental: (§1) 1HAEo-cells or SAECs were grown to confluence on 10 cm plates, stimulated with heat killed PAO1 (10^7 CFU) or P3C (15 μg/ml), and whole cell lysates made using 60 mM n-octyl-β-D-glucopyranoside (OGP) in TBS (0.1 M Tris-HCl and 0.15 M NaCl, pH 7.8) containing Complete Mini protease inhibitor tablets (Roche), 1 mM sodium orthovanadate and 100 mM sodium fluoride. Monoclonal anti-E-cadherin (BD Pharmingen), polyclonal anti-pan calpain (Santa Cruz Biotechnologies) or monoclonal anti-occludin (Invitrogen/Zymed) antibodies were used for immunoprecipitations followed by the addition of Protein G Agarose beads (Invitrogen) (Chun and Prince, 2006). Immunodetection was performed using monoclonal anti-E-cadherin, polyclonal anti-occludin, anti-pan calpain, anti-calpain 1 and anti-calpain 2 antibodies (Santa Cruz Biotechnology).
# 1HAEo-cells were transiently transfected with scrambled (control) or calpain 1 and 2 siRNA Smart pool oligos (Dharmacon) (FIGS. 11 and 12). Transfection was carried out using an Amaxa Nucleofector following manufacturer's instructions. Briefly, 10^6 1HAEo-cells were electroporated in 100 μl Buffer L with 1.5 μg of scrambled or siRNA oligo and transferred into pre-warmed 6 well tissue culture dishes. Cells were incubated at 37° C., 5% CO2 for 48 hours before performing experiments.
# [2] = test system: NF-κB activation, IL-8 production; test: NF-κB activation and IL-8 production in airway cells; assay type: cell-based; conditions: cells treated with BAPTA/AM to chelate intracellular Ca2+
# [3] = test system: SARS-associated coronavirus; conditions: one isolate of the coronavirus; cited from earlier work
# [4] = test system: E-cadherin cleavage by calpain (100 kDa E-cadherin cleavage product); test: E-cadherin cleavage: immunoblot in 1HAEo- cells; assay type: cell-based, human; conditions: airway cells, 4 hr stimulation
# Experimental: as §1
# [5] = test system: occludin, E-cadherin and calpain localization in 16HBE cells; test: Confocal imaging of junctional proteins and calpain in polarized 16HBE cells; assay type: cell-based, human; conditions: for Co-localization of calpain and E-cadherin: 1 hr stimulation; for Distribution of occludin and E-cadherin at cell junctions: 6 hr exposure
# Experimental: (§2) 16HBE cells were grown on 3 μm pore size Transwell-Clear filters (Corning-Costar) with an air-liquid interface to form polarized monolayers. For confocal imaging, cells were fixed with 4% paraformaldehyde, blocked with 5% normal donkey serum and incubated at 4° C. overnight with the polyclonal pan-calpain (Santa Cruz Biotechnology), monoclonal occludin (Invitrogen/Zymed) and/or monoclonal E-cadherin (BD Pharmingen) antibodies. Alexa Fluor 594 conjugated and Alexa Fluor 488 conjugated secondary antibodies (Invitrogen/Molecular Probes) were added at room temperature for 1 h. After washing, filters were removed from Transwells using a scalpel, mounted with Vectashield with DAPI (Vector Laboratories) onto glass slides and imaged using a Zeiss LSM 510 Meta scanning confocal microscope. For biotin labeling experiments 1 mg/ml EZ-Link Sulfo-NHS-LC-Biotin was added apically for 30 min at 4° C. before fixing the cells. Alexa Fluor 555 conjugated streptavidin (Molecular Probes) was added for detection of biotin.
# [6] = test system: epithelial cell junctions of polarized 16HBE cells; test: Biotin labeling and confocal microscopy of polarized 16HBE monolayers; assay type: cell-based, human; conditions: 4 h incubation
# Experimental: as §2
# calpain 2 mRNA = test: Real time PCR of calpains and calpastatin in 1HAEo- cells
# calpain = test: Calpain assay with cell permeable fluorogenic calpain substrate (Boc-LM-CMAC); assay type: cell-based, human; conditions: 1HAEo- cells and SAEC
# Experimental: Confluent monolayers of 1HAEo-cells or SAECs were loaded with 20 μM t-BOC-L-leucine-L-methionine amide (Boc-LM-CMAC), a calpain specific membrane permeable fluorogenic substrate. Cells were stimulated with heat killed PAO1 (10^7 CFU) or P3C (15 μg/ml) and fluorescence was quantified at ex 360 nm and em 465 nm with a Spectrafluor Plus fluorimeter (Tecan).
# polarized 16HBE cells [7] = test: Transepithelial resistance and dextran permeability assays; assay type: cell-based, human
# Experimental: Polarized 16HBE cells grown in 12 mm Transwell-Clear filters (Corning-Costar) were stimulated apically with 10^7 CFU of heat killed PAO1. Transepithelial resistance readings were taken using a Millipore resistance reader which applies a 20 μA square wave alternating current across the monolayers at 12.5 Hz. The resistance of Transwell inserts without cells was used as a baseline control. After 5 h of stimulation, Alexa Fluor 488 labeled dextran (10,000 MW) was added apically for 1 h and fluorescence in the basal compartment monitored at ex 485, em 535 with a SpectraFluor Plus fluorimeter (Tecan). As a positive control, cells were treated apically and basolaterally for 1 h with 0.02% EGTA, an extracellular Ca^2+ chelator which increases paracellular permeability by disrupting cadherin mediated cell-cell adhesion.
# polarized 16HBE cells [8] = test: Bacterial transmigration assay
# Experimental: Polarized 16HBE cells were pretreated with media alone, heat killed PAO1 (10^7 CFU), P3C (15 μg/ml), or thapsigargin (0.1 μM) for 4 h. Live PAO1 (2×10^7 CFU) were added apically for 1 h and media from the basal compartment collected and plated on LB agar plates. Bacterial transmigration across monolayers pretreated with 0.02% EGTA was used as a positive control.
# occludin, Q16625 = molecular target: T1, occludin, Q16625
# E-cadherin, P12830 = molecular target: T2, E-cadherin, P12830
molecule,measurement,setting,value
"CCCC[C@@H](C=O)NC(=O)[C@H](CC(C)C)NC(=O)[C@H](CC(C)C)NC(C)=O [ALLN, N-acetyl-leucyl-leucyl-norleucinal] (Ac-Leu-Leu-[Nle]-aldehyde)",Generation of occludin cleavage product in presence of inhibitor,[1],blocked generation of the occludin cleavage product
CC(=O)OCOC(=O)CN(CC(=O)OCOC(C)=O)c1ccccc1OCCOc1ccccc1N(CC(=O)OCOC(C)=O)CC(=O)OCOC(C)=O [BAPTA/AM],"Distal proinflammatory signaling (NF-κB activation, IL-8 production)",[2],unable to activate distal proinflammatory signaling
same,Generation of occludin cleavage product in presence of inhibitor,[1],substantially decreased
CNC(=O)[C@H](Cc1c[nH]c2ccccc12)NC(=O)[C@@H](CC(=O)NO)CC(C)C [GM6001],Generation of occludin cleavage product in presence of inhibitor,[1],neither the general matrix metalloproteinase inhibitor GM6001 nor the caspase inhibitor Z-DEVD-FMK blocked
NC(=O)c1ncn([C@@H]2O[C@H](CO)[C@@H](O)[C@H]2O)n1 [Ribavirin],Virus growth or cell-to-cell spread,[3],does not inhibit
COC(=O)CC[C@H](NC(=O)[C@H](CC(=O)OC)NC(=O)OCc1ccccc1)C(=O)N[C@H](C(=O)N[C@@H](CC(=O)OC)C(=O)CF)C(C)C [Z-DEVD-FMK],Generation of occludin cleavage product in presence of inhibitor,[1],neither the general matrix metalloproteinase inhibitor GM6001 nor the caspase inhibitor Z-DEVD-FMK blocked
C/C=C(/C)C(=O)O[C@H]1C(C)=C2[C@H]([C@@H]1OC(=O)CCCCCCC)[C@@](C)(OC(C)=O)C[C@H](OC(=O)CCC)[C@@]1(O)[C@H]2OC(=O)[C@@]1(C)O [thapsigargin],100 kDa E-cadherin cleavage product after stimulation,[4],generation of a 100 kDa E-cadherin cleavage product
same,Co-localization of calpain and E-cadherin,[5],increased; also recorded: induced mobilization and co-localization of calpain with E-cadherin
same,Penetration of biotin between cells of polarized monolayer,[6],resulted in the penetration of biotin; also recorded: increase in accessibility of the junctions to biotin
Pam3Cys-Ser-Lys4 [P3C],Transcription of calpain 2,calpain 2 mRNA,increased
same,Calpain activity after exposure to the stimulus,calpain,significantly increased; also recorded: sufficient to activate calpain
same,Calpain activity after exposure to the stimulus,calpain; listed as Pam3Cys,activates calpain 2
same,100 kDa E-cadherin cleavage product after stimulation,[4],generation of a 100 kDa E-cadherin cleavage product
same,Co-localization of calpain and E-cadherin,[5],increased; also recorded: co-localizing with E-cadherin
same,Co-localization of calpain and occludin,[5]; 1 h stimulation,Increased co-localization; also recorded: co-localized with membrane-associated occludin; also recorded: Increased colocalization
same,Distribution of occludin and E-cadherin at cell junctions,[5],dramatic loss; also recorded: altered
same,Distribution of occludin and E-cadherin at cell junctions,[5]; listed as PC3,altered
same,Transepithelial resistance,polarized 16HBE cells [7],no changes
same,45 kDa occludin cleavage product after stimulation,"[1]; 1HAEo- and SAEC, 1 hour post stimulation",readily identified
same,Bacterial invasion across the monolayer,polarized 16HBE cells [8],no changes
same,Penetration of biotin between cells of polarized monolayer,[6],resulted in the penetration of biotin; also recorded: increase in accessibility of the junctions to biotin
B1,"in vitro degradation (cleavage) of the immunoprecipitated protein by Ca2+-activated exogenous calpain, immunoblot","occludin, Q16625","exogenous calpain activated by the addition of Ca2+ degraded occludin and E-cadherin, but not claudin-1 or JAM-1"
same,"in vitro degradation (cleavage) of the immunoprecipitated protein by Ca2+-activated exogenous calpain, immunoblot","E-cadherin, P12830","exogenous calpain activated by the addition of Ca2+ degraded occludin and E-cadherin, but not claudin-1 or JAM-1"

# Source: patent publication US20110117106A1, “USES OF CALPAIN INHIBITORS TO INHIBIT INFLAMMATION” (priority 2008, published 2011)
